This note sets out measurements from patent US11208410B2, “Heterocycle-bound condensed heterocyclic compound or salt thereof, agricultural and horticultural insecticide comprising the compound, and method for using the insecticide” (Nihon Nohyaku Co., Ltd., priority 2016, dated 2021).

One experiment deals with Laodelphax striatella. Put plainly: Insecticidal test on Laodelphax striatella (rice seedling dip). The conditions noted are these: Laodelphax striatellus, 192 h, rice seedlings dipped 30 seconds, 3rd-instar larvae, 8 days after inoculation, read-out: insecticidal effect (corrected mortality rate), activity level. Format: in vivo. An excerpt: Insecticidal test on Laodelphax striatella
The heterocycle-bound condensed heterocyclic compounds represented by the general formula (1) of the present invention or salts thereof were separately dispersed in water and diluted to 500 ppm. Rice plant seedlings (variety: Nihonbare) were dipped in the agrochemical dispersions for 30 seconds. After air-dried, each seedling was put into a separate glass test tube and inoculated with ten 3rd-instar larvae of Laodelphax striatella, and then the glass test tubes were capped with cotton plugs. At 8 days after the inoculation, the numbers of surviving larvae and dead larvae were counted, the corrected mortality rate was calculated according to the formula shown below, and the insecticidal effect was evaluated according to the criteria shown below. Corrected mortality rate (%)=100×(Survival rate in a non-treatment plot−Survival rate in a treatment plot)/Survival rate in a non-treatment plot [Math. 2] Criteria A: the corrected mortality rate is 100%. B: the corrected mortality rate is 90 to 99%. C: the corrected mortality rate is 80 to 89%. D: the corrected mortality rate is 50 to 79%.

In a further experiment the test system is Plutella xylostella. Description: Insecticidal test on Plutella xylostella (dip of Chinese cabbage seedlings with laid eggs). Format: in vivo. The conditions noted are these: 144 h, seedlings with laid eggs dipped about 30 seconds, 25° C., 6 days after dip treatment, read-out: insecticidal effect (corrected mortality rate), activity level. An excerpt:
Insecticidal Test on Plutella xylostella
Adults of Plutella xylostella were released onto Chinese cabbage seedlings and allowed to lay eggs thereon. At 2 days after the release of the adults, the Chinese cabbage seedlings with laid eggs were dipped for about 30 seconds in agrochemical dispersions diluted to 500 ppm, each of which contained a different kind of heterocycle-bound condensed heterocyclic compound represented by the general formula (1) of the present invention as an active ingredient. After air-dried, the seedlings were kept in a thermostatic chamber at 25° C. At 6 days after the dip treatment, the number of hatched larvae per plot was counted, the mortality rate was calculated according to the formula shown below, and the insecticidal effect was evaluated according to the criteria of Test Example 2. This test was conducted in triplicate using 10 adults of Plutella xylostella per plot. Corrected mortality rate (%)=100×(Number of hatched larvae in a non-treatment plot−Number of hatched larvae in a treatment plot)/Number of hatched larvae in a non-treatment plot [Math. 3]

Turning to `CCS(=O)(=O)c1cc(-c2noc(C(F)(F)F)n2)cnc1-c1nc2cc(C(F)(F)C(F)(F)F)nnc2n1C` [Compound 1-41, 3-{2-(3-Methyl-6-pentafluoroethyl-3H-imidazo[4,5-C]pyridazin-2-yl)-3-(ethylsulfonyl)pyridin-5-yl}-5-trifluoromethyl-1,2,4-oxadiazole], the mortality at 500 ppm with Laodelphax striatella and in the experiment on Plutella xylostella was 100% in each case.
In the case of `CCS(=O)(=O)c1cc(-c2nc(-c3ccccc3)no2)cnc1-c1nc2cc(C(F)(F)C(F)(F)F)nnc2n1C` [Compound 2-56, 5-{2-(3-Methyl-6-pentafluoroethyl-3H-imidazo[4,5-C]pyridazin-2-yl)-3-(ethylsulfonyl)pyridin-5-yl}-3-phenyl-1,2,4-oxadiazole], the mortality at 500 ppm with Laodelphax striatella and in the experiment on Plutella xylostella was 100% throughout.
